Reference: patent publication US4550186A, “Binuclear copper (II) carboxylates formed from amine-carboxyboranes” (Duke University, priority 1983, dated 1985)

Experiments:
[1] = doses of 150-200 mg/kg; cited from earlier work
[2] = tested on: Ehrlich ascites carcinoma; assay: Ehrlich ascites carcinoma growth in CF1 male mice; type: in vivo, mouse
Description: CF1 male mice (~30 g) were implanted with 2×10^6 Ehrlich ascites tumor cells, intraperitoneally on Day 0. Compound I was suspended by homogenation in 0.05% polysorbate.80-water and administered intraperitoneally at 10 and 20 mg/kg for 9 days to determine its effectiveness for inhibition of tumor growth. Mice were sacrificed on Day 10, and the ascites fluid was collected from the peritoneal cavity. The volume and ascrit (packed cell volume) were determined for each animal and the percent inhibition of tumor growth was calculated. For the metabolic studies, mice were treated on Days 8 and 9 with 10 mg/kg of Compound I, intraperitoneally. The animal was sacrificed on Day 10 and the ascites fluid harvested. The in vitro metabolic studies were performed at […] final concentration of Compound I.

Structure (SMILES)	lowers serum cholesterol [1]	lowers serum triglyceride levels [1] [%]	Ascrit Packed Cell Vol. ([2]; Standard, dose not given)	Percent Inhibition ([2]; Standard, dose not given) [%]	Vol(ml) Ascites Fluid ([2]; Standard, dose not given) [mL]	No. of Animals Survived on Day 10 ([2]; mouse, in vivo)
CCOC(=O)C(C)(C)Oc1ccc(Cl)cc1 [clofibrate]	6-15%	25	–	–	–	–
Sc1ncnc2nc[nH]c12 [6-mercaptopurine, reference compound]	–	–	2.5	99.9	0.10	6
